The target in assay [1] is T1, Delta-type opioid receptor (Homo sapiens, UniProt P41143). Briefly: Displacement of [3H]DPDPE from human delta opioid receptor expressed in CHO cells. Format: cell-based. A general note: Displacement assays read how much labelled ligand stays bound in the presence of the test substance.
Assay [2] concerns the target T2, Mu-type opioid receptor (Homo sapiens, UniProt P35372). Briefly: Displacement of [3H]DAMGO from human mu opioid receptor expressed in CHO cell membrane. Format: cell membranes.
The target in assay [3] is T2, Mu-type opioid receptor. Briefly: Agonist activity at human mu opioid receptor expressed in CHO cells by [35S]GTP-gammaS binding assay. A general note: GTPγS is a poorly hydrolysed GTP analogue; its binding reports G protein activation.
A further assay concerns Mus musculus. Put plainly: Antinociceptive activity in sc dosed Swiss Webster mouse measured after 30 mins by hot plate test. Format: functional. Particulars: 0.5 h. In general terms: Thermal pain tests record how soon the animal reacts.
The target of assay [4] is T1, Delta-type opioid receptor. Put plainly: Binding affinity at delta opioid receptor (unknown origin).
Assay [5] addresses T3, Kappa-type opioid receptor (Homo sapiens, UniProt P41145). Briefly: Agonist activity at kappa opioid receptor (unknown origin) assessed as [35S]GTPgammaS binding by cell based assay. In kind it is functional.
For assay [6], the target named is T2, Mu-type opioid receptor. Briefly: Agonist activity at mu opioid receptor (unknown origin) assessed as [35S]GTPgammaS binding by cell based assay. In kind it is functional.
In assay [7] the target is T3, Kappa-type opioid receptor. Briefly: Binding affinity to kappa opioid receptor (unknown origin).
In assay [8] the target is T2, Mu-type opioid receptor. Put plainly: Binding affinity at mu opioid receptor (unknown origin).
The target in assay [9] is T1, Delta-type opioid receptor. Briefly: Partial agonist activity at delta opioid receptor (unknown origin) assessed as inhibition of adenylyl cyclase activity.
For assay [10], the target named is T1, Delta-type opioid receptor. Briefly: Antagonist activity at […] delta opioid receptor in CD1 mouse assessed as electrically induced twitches.
The target in assay [11] is Mu-type opioid receptor (Cavia porcellus, UniProt P97266). Briefly: Agonist activity at mu-opioid receptor in guinea pig ileum assessed as inhibition of electrically induced twitches. In kind it is tissue-based.
Sequence of Mu-type opioid receptor (Cavia porcellus, UniProt P97266) (P97266 whole entry): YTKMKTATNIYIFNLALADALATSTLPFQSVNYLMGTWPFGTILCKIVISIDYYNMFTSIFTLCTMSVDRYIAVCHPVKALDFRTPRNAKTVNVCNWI
Assay [12] has as its target Kappa-type opioid receptor (Rattus norvegicus, UniProt P34975). Put plainly: Displacement of [3H]DAMGO from kappa opioid receptor in albino Sprague-Dawley rat after 90 mins by liquid scintillation.
The target of assay [13] is T2, Mu-type opioid receptor. Briefly: Displacement of [3H]DPN from human mu opioid receptor expressed in CHO cells by liquid scintillation counting. In kind it is cell-based.
Assay [14] concerns the target T1, Delta-type opioid receptor. Briefly: Displacement of [3H]DPN from human delta opioid receptor expressed in CHO cells by liquid scintillation counting. In kind it is cell-based.
Assay [15] addresses T4, Delta-type opioid receptor (Mus musculus, UniProt P32300). Put plainly: Agonist activity at delta-opioid receptor in mouse vas deferens. Format: tissue-based.
The target of assay [16] is T4, Delta-type opioid receptor. Briefly: Antagonist activity at delta-opioid receptor in mouse vas deferens assessed as inhibition of DPDPE-induced inhibition of electrically induced twitches. In kind it is tissue-based. Particulars: read-out: pA2 (converted).
The target of assay [17] is Mu-type opioid receptor (Rattus norvegicus) (UniProt P33535). Briefly: Agonist activity at rat mu opioid receptor transfected in C6 cells by [35S]GTPgammaS binding assay. Format: functional, cell-based.
Sequence of Mu-type opioid receptor (Rattus norvegicus) (P33535 whole entry): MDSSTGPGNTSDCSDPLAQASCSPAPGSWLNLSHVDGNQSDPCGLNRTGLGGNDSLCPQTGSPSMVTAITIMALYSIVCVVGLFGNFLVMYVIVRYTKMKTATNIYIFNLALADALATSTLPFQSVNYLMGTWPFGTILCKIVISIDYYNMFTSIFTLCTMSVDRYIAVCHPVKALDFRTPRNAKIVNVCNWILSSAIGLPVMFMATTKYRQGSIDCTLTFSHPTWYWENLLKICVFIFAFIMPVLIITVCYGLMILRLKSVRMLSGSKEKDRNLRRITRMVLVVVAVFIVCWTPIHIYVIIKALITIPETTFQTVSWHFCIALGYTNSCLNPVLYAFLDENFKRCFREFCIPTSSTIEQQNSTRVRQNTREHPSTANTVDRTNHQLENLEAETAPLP
Assay [18] has as its target Delta-type opioid receptor (Rattus norvegicus) (UniProt P33533). Put plainly: (§1) Agonist activity at rat delta opioid receptor transfected in C6 cells by [35S]GTPgammaS binding assay. Format: functional, cell-based.
Assay [19] concerns the target T1, Delta-type opioid receptor. Put plainly: Displacement of [3H]naltrindole from human delta opioid receptor expressed in CHO cell membrane. Format: cell membranes.
For assay [20], the target named is T1, Delta-type opioid receptor. Briefly: Antagonist activity at human delta opioid receptor expressed in CHO cell membrane assessed as inhibition of […]-induced [35S]-GTP-gammaS binding. In kind it is cell membranes.
For assay [21], the target named is T1, Delta-type opioid receptor. Put plainly: Partial agonist activity at delta opioid receptor (unknown origin) assessed as [35S]GTPgammaS binding by cell based assay.
For a further assay, the system named is Rattus norvegicus. Briefly: Analgesic activity in sc dosed rat by tail flick test. In kind it is functional.
The target in assay [22] is Delta-type opioid receptor (Rattus norvegicus, UniProt P33533). Described as §1. Format: functional, cell-based.
Sequence of Delta-type opioid receptor (Rattus norvegicus, UniProt P33533) (P33533 whole entry): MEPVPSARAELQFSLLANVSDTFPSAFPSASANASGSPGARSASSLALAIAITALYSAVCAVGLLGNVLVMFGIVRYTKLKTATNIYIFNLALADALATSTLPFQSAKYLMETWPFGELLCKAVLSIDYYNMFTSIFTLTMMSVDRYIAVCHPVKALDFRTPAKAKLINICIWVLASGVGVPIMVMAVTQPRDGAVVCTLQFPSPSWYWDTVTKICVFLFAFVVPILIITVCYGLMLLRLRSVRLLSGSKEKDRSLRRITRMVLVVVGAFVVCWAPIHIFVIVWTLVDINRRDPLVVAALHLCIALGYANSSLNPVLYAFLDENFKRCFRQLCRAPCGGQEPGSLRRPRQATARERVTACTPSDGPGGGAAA
Assay [23] has as its target Delta-type opioid receptor (Mus musculus) (UniProt P32300). Briefly: Antagonist activity at delta-opioid receptor in mouse vas deferens. In kind it is tissue-based.

Positions of bridges follow the written chain, without caps; N, C: chain ends. Non-standard residues stand in square brackets, D forms with d. Residues, ends and D or L forms follow the SMILES beside them. *: point of attachment. Dmt = Cc1cc(O)cc(C)c1C[C@H](N)C(=O)O; Tic = O=C(O)[C@@H]1Cc2ccccc2CN1; NHBn = c1ccc(CN*)cc1

T2 sequence (P35372 whole entry): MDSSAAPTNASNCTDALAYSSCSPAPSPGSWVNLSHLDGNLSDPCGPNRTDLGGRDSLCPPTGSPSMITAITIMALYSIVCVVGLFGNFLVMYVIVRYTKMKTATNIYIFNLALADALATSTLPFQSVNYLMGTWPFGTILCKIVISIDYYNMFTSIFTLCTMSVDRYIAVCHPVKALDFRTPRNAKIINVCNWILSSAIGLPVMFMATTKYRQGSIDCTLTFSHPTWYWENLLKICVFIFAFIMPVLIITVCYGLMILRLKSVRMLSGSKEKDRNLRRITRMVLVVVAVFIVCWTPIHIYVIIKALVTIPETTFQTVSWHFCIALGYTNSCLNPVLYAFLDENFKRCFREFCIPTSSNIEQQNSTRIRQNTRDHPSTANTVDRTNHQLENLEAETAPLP
T1 sequence (P41143 whole entry): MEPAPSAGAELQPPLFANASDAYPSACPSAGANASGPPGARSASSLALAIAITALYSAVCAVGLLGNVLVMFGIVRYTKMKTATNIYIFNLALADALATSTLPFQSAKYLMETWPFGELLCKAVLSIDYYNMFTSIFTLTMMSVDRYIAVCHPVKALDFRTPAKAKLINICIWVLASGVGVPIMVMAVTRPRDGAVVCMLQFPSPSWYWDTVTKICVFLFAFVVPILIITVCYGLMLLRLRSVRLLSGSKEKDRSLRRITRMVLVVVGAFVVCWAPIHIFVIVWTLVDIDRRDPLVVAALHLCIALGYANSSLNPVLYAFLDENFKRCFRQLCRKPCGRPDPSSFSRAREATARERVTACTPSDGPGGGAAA
Sequence of Delta-type opioid receptor (Rattus norvegicus) (P33533 whole entry): as the sequence (P33533 whole entry) above
T4 sequence (P32300 whole entry): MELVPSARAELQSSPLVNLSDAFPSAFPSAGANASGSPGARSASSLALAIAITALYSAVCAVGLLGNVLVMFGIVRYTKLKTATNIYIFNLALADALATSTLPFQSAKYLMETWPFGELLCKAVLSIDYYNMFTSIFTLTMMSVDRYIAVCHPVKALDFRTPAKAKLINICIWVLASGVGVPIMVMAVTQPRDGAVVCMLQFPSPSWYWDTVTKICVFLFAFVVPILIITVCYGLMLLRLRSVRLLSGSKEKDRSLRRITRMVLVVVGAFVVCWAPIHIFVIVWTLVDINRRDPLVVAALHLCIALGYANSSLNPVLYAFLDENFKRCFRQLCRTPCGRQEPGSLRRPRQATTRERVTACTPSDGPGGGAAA
T3 sequence (P41145 whole entry): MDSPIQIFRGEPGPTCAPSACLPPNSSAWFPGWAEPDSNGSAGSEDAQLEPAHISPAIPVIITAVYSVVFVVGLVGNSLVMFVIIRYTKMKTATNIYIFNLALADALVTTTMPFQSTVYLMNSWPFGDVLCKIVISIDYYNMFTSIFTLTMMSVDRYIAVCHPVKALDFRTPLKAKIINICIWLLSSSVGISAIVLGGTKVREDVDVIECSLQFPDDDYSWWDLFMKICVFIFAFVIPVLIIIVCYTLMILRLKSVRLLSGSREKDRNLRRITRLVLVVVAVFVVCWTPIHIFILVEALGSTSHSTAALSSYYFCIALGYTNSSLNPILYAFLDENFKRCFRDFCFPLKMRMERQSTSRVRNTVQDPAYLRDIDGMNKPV
Sequence of Kappa-type opioid receptor (Rattus norvegicus, UniProt P34975) (P34975 whole entry): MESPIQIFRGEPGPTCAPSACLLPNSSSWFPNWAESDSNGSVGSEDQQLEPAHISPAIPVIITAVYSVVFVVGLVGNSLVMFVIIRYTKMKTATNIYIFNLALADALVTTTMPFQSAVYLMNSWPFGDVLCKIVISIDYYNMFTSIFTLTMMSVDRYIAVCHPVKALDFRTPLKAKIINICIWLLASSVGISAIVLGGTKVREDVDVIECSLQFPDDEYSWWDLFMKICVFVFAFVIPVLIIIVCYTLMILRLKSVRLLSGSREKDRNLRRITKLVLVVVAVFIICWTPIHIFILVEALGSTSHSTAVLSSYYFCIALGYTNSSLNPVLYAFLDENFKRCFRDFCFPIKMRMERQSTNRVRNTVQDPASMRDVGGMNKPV
Sequence of Delta-type opioid receptor (Mus musculus) (P32300 whole entry): as the sequence (P32300 whole entry) above

In the case of `CN1CC[C@]23c4c5ccc(O)c4O[C@@]2(CO)C(=O)CC[C@@]3(O)[C@H]1C5`, the Ki in [1] came out at 208 nM; on Mu-type opioid receptor [2] it was 3.2 nM. In addition, a half-maximal effect on Mu-type opioid receptor [3] (EC50) was put at 35 nM. The molecule also had an ED50 with Mus musculus of 4.3 mg/kg.
In the case of `NC(=O)[C@H]1CSCSC[C@H](NC(=O)[C@@H](N)Cc2ccc(O)cc2)C(=O)N[C@@H](Cc2ccccc2)C(=O)N[C@@H](Cc2ccc3ccccc3c2)C(=O)N1`, the Ki in assay [4] amounted to 0.48 nM; in assay [7], 1.3 nM; at Mu-type opioid receptor [8] it was 0.47 nM. The Emax in [5] turned out to be 89%; on Mu-type opioid receptor [6], 99%. The EC50 in [9] amounted to 36 nM.
Turning to `C=CCN1C[C@H](C)N([C@@H](c2cccc(O)c2)c2cccc(C(=O)N(C)c3cccc(F)c3)c2)C[C@H]1C`, the IC50 turned out to be 3.4 nM in assay [10] and 1 nM at Mu-type opioid receptor [11]. In assay [12], this molecule displayed a Ki of 0.46 nM.
Consider `Cc1cc(O)cc(C)c1C[C@H](N)C(=O)N1Cc2ccccc2C[C@H]1C(=O)NCC(=O)NCc1ccccc1` (H-[Dmt]-[Tic]-Gly-NHBn), for which the Ki in assay [4] was 0.16 nM; on Mu-type opioid receptor [13], 16.2 nM; in [14] it was 0.151 nM; at Mu-type opioid receptor [8], 0.031 nM. Besides, the EC50 was 2.57 nM in [15] and 31.6 nM at Mu-type opioid receptor [11]. For the same molecule, the Kb in [16] was 0.708 nM.
As for `NC(=O)[C@@H]1CSSC[C@@H](NC(=O)[C@@H](N)Cc2ccc(O)cc2)C(=O)N[C@@H](Cc2ccccc2)C(=O)N[C@@H](Cc2ccccc2)C(=O)N1` (H-Y[dC]FFC-NH2; disulfide 2-5), the results for the Emax in assay [17] and in assay [18] were 77% and 69%, respectively.
Take `Cc1cc(O)cc(C)c1C[C@H](N)C(=O)N1Cc2ccccc2C[C@H]1C(=O)NCC(=O)N1CCc2ccccc2C1`: the Ki was found to be 3.3 nM at Mu-type opioid receptor [2] (cho) and 0.75 nM in assay [19] (cho). On Mu-type opioid receptor [3] (cho), this molecule came in with an EC50 of 22 nM. Further, in [20] (cho), the concentration for half-maximal inhibition (IC50) was determined as 2.3 nM.
In the case of `CN1CC[C@]23c4c5ccc(O)c4O[C@@]2(C)c2[nH]c4ccccc4c2C[C@@]3(CCCc2ccccc2)[C@H]1C5`, the concentration for a half-maximal effect (EC50) in [21] is 0.87 nM; at Mu-type opioid receptor [6], 45.1 nM. Also, the Ki in assay [4] came out at 1.95 nM; on Mu-type opioid receptor [8], 10.2 nM.
Take `CN1CC[C@]23c4c5ccc(O)c4O[C@H]2[C@@H](O)C=C[C@H]3[C@H]1C5` [MORPHINE]: the ED50 in the assay on Rattus norvegicus worked out at 2.7 mg/kg.
As for `Cc1cc(O)cc(C)c1C[C@H](N)C(=O)N1Cc2ccccc2C[C@H]1C(=O)N[C@@H](Cc1ccccc1)C(=O)N[C@@H](Cc1ccccc1)C(N)=O` (H-[Dmt][Tic]FF-NH2), the Ki at Mu-type opioid receptor [8] came out at 1.19 nM.
Consider `C[C@H]1[C@H]2Cc3ccc(O)cc3[C@]1(C)CCN2CCC(=O)Nc1ccccc1`, for which the results for the Ki (in [4]; at Mu-type opioid receptor [8]) were 29 nM and 0.83 nM, respectively. Also, it took a dose of 2.03 mg/kg to reach the 50% effect level in the assay on Rattus norvegicus (ED50).
Regarding `CCCC[C@@H]1NC(=O)[C@H](Cc2cccc3ccccc23)NC(=O)[C@@H](NC(=O)[C@@H](N)Cc2ccc(O)cc2)CSSC[C@H](C(N)=O)NC1=O`, the Emax in [17] and in assay [18] was 100% in each case.
With `CCCC[C@@H]1NC(=O)[C@H](Cc2cccc3ccccc23)NC(=O)[C@H](NC(=O)[C@@H](N)Cc2ccc(O)cc2)CSSC[C@@H](C(N)=O)NC1=O`, a half-maximal response in assay [22] (EC50) required 22 nM.
In the case of `N[C@@H](Cc1ccc(O)cc1)C(=O)N1Cc2ccccc2CC1CN[C@@H](Cc1ccccc1)C(=O)NC(CC1CCCCC1)C(=O)O` (stereo not given in full), the values for the Ki (in assay [4]; at Mu-type opioid receptor [8]) were 0.259 nM and 1050 nM, respectively. Moreover, the Ke in assay [23] is 0.175 nM.
Regarding `Cc1cc(O)cc(C)c1C[C@H](N)C(=O)N1Cc2ccccc2C[C@@H]1C(=O)NCC(=O)N(c1ccccc1)c1ccccc1`, the figures for the Ki (on Mu-type opioid receptor [2]; in assay [19]) were 1.71 nM and 0.94 nM, respectively. This molecule registered an EC50 on Mu-type opioid receptor [3] of 4.8 nM. In addition, the IC50 in assay [20] was found to be 8.3 nM.

A word on the Ki: it is the equilibrium dissociation constant of an inhibitor or competing ligand from its target. The term EC50 denotes the concentration at which the effect is half-maximal. As usually defined, the ED50 is the midpoint of the dose-response relation. A high value points to weaker potency. Usually Emax stands for the maximal effect, on the per cent scale that the assay sets. One may read the IC50 as the concentration at which inhibition is half-maximal.

(Values after ChEMBL document CHEMBL3758122, “Multitarget opioid ligands in pain relief: New players in an old game” (Eur J Med Chem, 2016).)
